Results on two compounds are retold here after patent publication EP2050747A1, “Dimers of harmol or of its derivatives and uses thereof” (BioAlliance Pharma, priority 2007, dated 2009).

Series [1] relates to F-actin. Kind of series: Actin dynamics, fluorescence anisotropy assay in tumor cell cytosolic fraction. The class given is biochemical. More on the design: Kobs: unit not given beside the values. Conditions: for F actin steady state value (Δ mA max), effect in words / F actin elongation rate constant (Kobs), effect in words: added to assay medium, versus untreated; for F actin steady state value (Δ mA max), effect in words: NIH 3T3 EF cytosolic fraction or lysate, harmol at 10 µM. As to the method: Actin dynamics have been quantified in tumor cell cytosolic fraction using the fluorescence anisotropy assay which gains access to rate constant of F-actin elongation (kobs) and steady state concentration of F-actin (Δ mA max).
All reactions were carried out at 22°C and fluorescence anisotropy signal was recovered at 520 nm with excitation at 490 nm in a Beacon 2000 (Panvera). Alexa 488 actin (Molecular Probes) was centrifuged at 35 000 rpm for 2 h at 4°C to sediment residual actin polymers in a Beckman L5-50B ultracentrifuge. […] 80% of the supernatant was withdrawn; the concentration was defined through fluorescence measurements (excitation at 490 nm and signal recovering at 520 nm). The ultracentrifuged actin concentration was calculated using the non ultracentrifuged Alexa 488 actin as a standard. The supernatant was aliquoted, frozen in liquid nitrogen and stored at -80°C.
Before experiment, an aliquot of ultracentrifuged Alexa 488 actin was diluted to a concentration of 1 mg/ml in G buffer (5 mM Tris pH 8.1, 2 mM CaCl2, 0.2 mM DTT, 0.2 mM ATP). 3 µl of diluted Alexa 488 actin was mixed in 168 µl of G buffer and actin monomers anisotropy was measured before the addition of 4 µl of polymerisation buffer (2.5 M KCI, 50 mM MgCl2, 25 mM ATP), 5 µl of G buffer in the presence or in the absence of the chemical molecule and 20 µl cellular extract of normal NIH 3T3 cells or malignant NIH 3T3 EF cells at 2 mg/ml. The final concentration of Alexa 488 actin was 4 nM. The ratio of unlabelled to labelled actin was about 140/4 nM. Measurements were made each 10 sec for 200 sec. Actin monomers anisotropy value was subtracted, yielding the anisotropy enhancement (Δ mA). The data were fitted with the equation Y= Ymax . [1- exp(- K.X)]. The curves start at zero and ascend to Ymax that corresponds to the steady state anisotropy value (Δ mA eq), with a rate constant K. Y is anisotropy values of which monomers anisotropy is substracted and X is the time (Assessment of cellular actin dynamics by measurement of fluorescence anisotropy. Anal Biochem. 2007 Aug 1;367(1):95-103. Epub 2007 Apr 5. Spitz et al.).
On the technique in general: In fluorescence polarisation assays a small probe gives low polarisation when free and higher when bound to something large.

Series [2] relates to NIH 3T3 EF. In words: MTT assay (cellular viability). The class given is cell-based. Conditions: Mus musculus, NIH3T3, 72 h, 3 days. The procedure: (§1) Growth studies were performed using the [3-(4,5 dimethylthiazol-2-yl)-2,5-diphenyl-2H-tetrazolium bromide] (Sigma) colorimetric assay.
(§2) About 1500 cells were seeded in a 96-well culture plate 24 hours before adding increasing concentrations of tested molecule. The plate was incubated at 37°C for 3 days. 10 µl MTT stock solution (5 mg/ml in phosphate buffer saline) was added to 90 µl of complete medium in each well, the incubation was continued for 3 h at 37°C. 100 µl of lysis buffer (10 % sodium dodecyl sulfate, 1% HCl 1N; pH 4.7) was added to each well, and the plate was incubated overnight. The absorbance was determined using an Integrated EIA Management System (Labsystem) at a wavelength of 570 nm. The proliferation rates were calculated from the OD readings using the untreated cells as 100%.
(In general: Tetrazolium assays rely on reduction of a dye to a coloured formazan, in cell work by metabolically active cells.)

Series [3] relates to B16F10. In words: MTT assay (cellular viability). Format: cell-based, Murine. The note with it: Mus musculus, B16-F10, 72 h; B16F10, 3 days. The procedure: as §1, §2
Series [4] relates to NIH 3T3 EF. Kind of series: Cloning assay, colony formation in semi solid medium (methylcellulose). Format: cell-based. The procedure: (§3) Cells were embedded in complete culture medium supplemented with 0,8% methylcellulose (Methocel MC4000, Sigma), seeded in triplicate into 35-mm dishes (Greiner Bio-one Ref 627102, Dominique Dutscher) and incubated at 37 °C in a humidified 5% CO2 atmosphere.
(§4) The number of cells seeded was 1000 cells per dish. After one week (B16F10 cell line) to 3 weeks (NIH 3T3 EF cell line), macroscopic clones were counted.

The subject of series [5] is B16F10. Described as above. Format: cell-based, Murine. As to the method: as §3, §4
Series [6] concerns NIH 3T3 EF cells. Kind of series: Rescue of F-actin network, FITC-phalloidin fluorescence microscopy. The class given is cell-based. As to the method: Malignant NIH 3T3 EF cells were seeded onto glass cover slips at a density of 2000 cells per cm^2. The next day, tested molecules were applied to NIH 3T3 EF cells at various non cytotoxic concentrations. Three days later, cells were fixed for 10 min in PBS containing 3.7 % formaldehyde at 4°C before examination with a fluorescence microscope. The formaldehyde solution was neutralized with 50 mM NH4Cl. Permeabilisation was carried out for 4 min with 0.4% Triton X-100 in PBS. Cells were incubated for 1 h at room temperature with blocking buffer (3% bovine serum albumin in PBS) and then for 1 h with FITC-phalloidin (Sigma) which stabilizes structures by inhibiting phosphate release from ADP-Pi-actin filaments and allows visualization of actin filaments by fluorescence microscopy. The cover slips were mounted on microscope slides using a solution of glycerol 50%, DABCO 2.5% in PBS as embedding medium.

Series [7] concerns malignant NIH 3T3 EF cells. In words: Wound healing assay (cell motility). The class given is cell-based. The procedure:
(§5) Harmol dimers have been tested in a cell motility assay: the behaviour of tumoral cells treated by these dimers was compared with non-treated tumoral cells in a wound healing assay. Wound healing assay was performed to evaluate the effect of tested molecules on motility of malignant NIH 3T3 EF cells and melanoma cell line B16F10. About 100 000-200 000 cells were seeded in a 6-well culture plate and the tested molecule was added 24 hours later. Cells were grown for 3 days to confluence about 90-95% and small scratch-wounds (1 mm width) were made with a pipette tip. Cell debris were removed, then the cultures were incubated in complete medium for 10 h in the presence of the same concentration of the tested molecule. Then, the cells were fixed for 10 min in PBS containing 3.7% formaldehyde at 4°C.

The test system of series [8] is melanoma cell line B16F10. In words: Wound healing assay (cell motility). The class given is cell-based, Murine. The note with it: B16F10, non cytotoxic concentration (25-100 nM), 24 h after wound formation, Figure 6. The procedure: as §5, with “Cell debris were removed, then the cultures were incubated in complete medium for 10 h in the presence of the same concentration of the tested molecule.” left out

Series [9] has as its system B16F10 tumor. Kind of series: In vivo tumorigenicity assay, subcutaneous B16F10 tumor growth. More on the design: species or system C57BU6 mice. As to the method: Female 6-8 week-old C57BU6 mice were provided by Harlan (Gannat, France).
Animals were housed in air-conditioned atmosphere, given food and water in standard conditions. One million B16F10 cells in 0.1 ml PBS were injected subcutaneously into the right flank of mice. Seven days after cells inoculation, it was possible to measure tumor volume (day 0). Thereafter, before drug administration, female C57BU6 mice were randomized to form 2 groups. […]
B16F10 tumor development was monitored for 2 weeks. The tumor size was estimated every fourth day by measuring the diameters of the tumors in two perpendicular dimensions using callipers. The volume of tumor (V) was calculated using the formula, V = 2W(U2)2 , where L and W were respectively the length and the width of tumor.
In vivo tumorigenicity assay was studied with harmine. […] In parallel, control mice were treated by one daily oral route administration of the vehicle.

Series [10] has as its system human tumor cell lines. The note with it: cited from earlier work.
Series [11] concerns cyclin-dependent kinases (CDKs). The note with it: cited from earlier work.
Series [12] has as its system monoamine oxydase. The note with it: cited from earlier work.

By IC50 is commonly meant the concentration that inhibits the measured activity by half.

Molecules are shown by their SMILES.

For `Cc1nccc2c1[nH]c1cc(OCCCCCOc3ccc4c(c3)[nH]c3c(C)nccc34)ccc12` [BA016DD1172, 7,7'-[Pentane-1,5-diylbis(oxy)]bis(1-methyl-9H-β-carboline)], in series [1] (10 µM, NIH 3T3 EF extract, rate constant of F-actin elongation), the Kobs was 0,179. Besides, the “Δ mA max” value in series [1] (10 µM, NIH 3T3 EF extract, steady state concentration of F-actin (anisotropy enhancement)) is given as 62. Besides, in series [1] (10 µM, tumoral NIH 3T3 EF cytosolic fraction), the “actin polymerisation kinetics compared with normal NIH 3T3 cytosolic fraction” value is recorded as “similar”. Further, in [1], the “F actin steady state value (Δ mA max), effect in words” value is on record as “increased”. Further, the “F actin elongation rate constant (Kobs), effect in words” value in series [1] (NIH 3T3 EF cytosolic fraction) was “increased”. For the same compound, the IC50 in [2] amounted to 300 nM; in series [3], 400 nM; in series [4] (Mus musculus, NIH3T3, 504 h, NIH 3T3 EF, 3 weeks, read-out: Inhibition of colony formation (methylcellulose) IC50) it was 50 nM; in series [5] (Mus musculus, B16-F10, 168 h, B16F10, one week, read-out: Inhibition of colony formation (methylcellulose) IC50), 30 nM. Further, the “inhibitory activity on NIH 3T3 EF colony formation in methylcellulose semi-solid medium” value in [4] (Figure 2) is “marked inhibitory activity”. Also, in series [5] (Figure 3), the “inhibitory activity on B16F10 colony formation in methylcellulose semi-solid medium” value is “marked inhibitory activity”. For the same compound, in series [6] (non cytotoxic concentration (100 nM), three days, Figure 4), the “reorganisation of the actin network in tumor cells” value was “able to reorganise the actin network”. For the same compound, the “inhibition of malignant cell motility” value in series [7] (NIH 3T3 EF, non cytotoxic concentration (25-100 nM), 10 h after wound formation, Figure 5) is on record as “inhibited”; in [8], “inhibited”. Further, in series [9] (daily per os 100 mg/kg for five days, Figure 7), the “antitumor activity against B16 melanoma” value is given as “marked antitumor activity”. Moreover, in [9] (day 7, daily per os 100 mg/kg for five days, versus control group, p = 0,0020), the tumoral growth inhibition is on record as 48,5%.

For `COc1ccc2c(c1)[nH]c1c(C)nccc12` [harmine, reference compound], in series [1] (NIH 3T3 EF cytosolic fraction, BA016FZ527 at 10 µM, harmine concentration not given), the “F actin elongation rate constant compared with NIH 3T3 cytosolic fraction” value is “lower”. Further, the “F actin steady state value (Δ mA max), effect in words” value in [1] is given as “increase”. In series [1] (NIH 3T3 EF cytosolic fraction), the “F actin elongation rate constant (Kobs), effect in words” value is “increase”. Moreover, the “concentration at which inhibition of NIH 3T3 EF colony formation was observed” value in series [4] (in words) was “micromolar concentration”. For the same compound, in [5], the “concentration at which inhibition of B16F10 colony formation was observed” value is “about 1 µM”. In addition, the “modification in actin cytoskeleton network” value in series [6] (compared with the concentrations used in harmol dimers test) was “higher concentrations”. In addition, the “inhibition of migration compared with the harmol dimers” value in series [7] (NIH 3T3 EF cells, 5 µM) is recorded as “lower inhibition of migration”. The tumoral growth inhibition entry in series [9] (daily per os 100 mg/kg (2 x 50 mg/kg) for 15 days) and in [9] (daily per os 200 mg/Kg (2 x 100 mg/kg) for 15 days) was “Any tumoral growth inhibition” in each case. Also, in series [10], the “cytotoxicity against human tumor cell lines” value is “strong cytotoxicity”. Moreover, the “inhibition of cyclin-dependent kinases (CDKs)” value in [11] is on record as “selective inhibitor”. The monoamine oxydase inhibition entry in [12] was “monoamine oxydase inhibitor”.
